From patent US6465184B1, “Isolated nucleic acid molecule encoding peptides which form complexes with MHC molecules HLA-Cw*1601 and uses thereof” (Ludwig Institute for Cancer Research, priority 1993, dated 2002)

Assays:
[1] = system: lymphoblastoid cell line MZ2-EBV; assay: peptide sensitization chromium release assay: lysis by CTL 82/82 of peptide-incubated target cells; type: cell-based, human; settings: chromium release after 4 hours; for sensitization of target cells to lysis by CTL 82/82: lymphoblastoid cell line from patient MZ2, various peptide concentrations
Method: (§1) The lysis assay employed was a chromium release assay following Herin et al., Int. J. Cancer, 39:390-396 (1987), which is incorporated herein by reference. The assay, however, is described herein. The target melanoma cells were grown in vitro, and then resuspended at 4×10^7 cells/ml in DMEM, supplemented with DMEM with 10 mM HEPES and 50% FCS, and incubated for 60 minutes at 37° C. with 200 μCi/ml of Na(^51Cr)O4. Labelled cells were washed three times with DMEM, supplemented with 10 mM HEPES. These were then resuspended in DMEM supplemented with 10 mM HEPES and 10% FCS, after which 100 μl aliquots containing 10^3 cells, were distributed into 96 well microplates. Samples of PBLs were added in 100 μl of the same medium, and assays were carried out in duplicate. Plates were centrifuged for 4 minutes at 100 g, and incubated for four hours at 37° C. in a 8% CO2 atmosphere.
(§2) Plates were centrifuged again, and 100 μl aliquots of supernatant were collected and counted. Percentage of ^51Cr release was calculated as follows: [formula]
where ER is observed, experimental ^51Cr release, SR is spontaneous release measured by incubating 10^3 labeled cells in 200 μl of medium alone, and MR is maximum release, obtained by adding 100 μl 0.3% Triton X-100 to target cells.
Several synthetic peptides were prepared on this basis. Peptides were synthesized on solid phase using F-moc for transient NH2-terminal protection as described by Atherton et al., J. Chem. Soc. Lond. Perkin Trans., 1:538-546 (1981) and characterized by mass spectrometry. All peptides were >90% pure as indicated by analytical HPLC. Lyophilized peptides were dissolved at 20 mg/ml in DMSO, diluted at 2 mg/ml in 10 mM acetic acid and stored at […]. Peptides were tested in a CTL stimulation assay with COS-7 cells transfected by HLA-Cw*1601 and incubated with the peptides. They were also tested by chromium release assay as previously described (Boon et al., J. Exp. Med., 152:1184-1193 (1980)). In this peptide sensitization assay, target cells were ^51Cr-labelled for one hour at 37° C. and washed extensively. 1000 target cells were then incubated in 96-well microplates in the presence of various concentrations of peptide for 30 minutes at 37° C. before CTL 82/82 cells were added. Chromium release was measured after 4 hours at 37° C.
The final concentration of peptides during the incubation of the target cells with the CTL is indicated. The arrow indicates the percentage of lysis of MZ2-MEL.43 cells. […] P1.HTR cells were transfected with HLA-Cw*1601 and were incubated with nonapeptide AARAVFLAL (SEQ ID NO: 3). […] Lysis of chromium-labelled cells was tested after 4 hours.

[2] = system: cells transfected with HLA-Cw*1601; assay: CTL stimulation assay (TNF production) with HLA-Cw*1601-transfected cells incubated with peptide; type: cell-based; settings: six CTL clones from patient MZ2; cells transfected with HLA-Cw*1601 and incubated with nonapeptide
Method: Cotransfectants were tested after 24 or 48 hours for their ability to stimulate the production of tumor necrosis factor (TNF) by CTLs (Traversari et al., Immunogenetics, 235:145-152 (1992)). 1500 CTLs were added in 100 μl of Iscove's medium (Gibco BRL) containing 10% human serum and 20 U/ml r-hu-IL-2 to microwells containing target cells. After 24 hours, the supernatant was collected and its TNF content was determined by testing its cytotoxic effect on cells of WEHI-164 clone 13 (Espevik et al., J. Immunol. Methods, 95:99-105 (1986)) in an MTT colorimetric assay (Hansen et al., J. Cancer, 39:390-396 (1989) and Traversari et al., supra).
Several synthetic peptides were prepared on this basis. Peptides were synthesized on solid phase using F-moc for transient NH2-terminal protection as described by Atherton et al., J. Chem. Soc. Lond. […] Chromium release was measured after 4 hours at 37° C.
From two MLTCs set up with different blood samples of patient MZ2, six CTL clones that recognized the BAGE/HLA-Cw*1601 antigen were derived. […] Vα and Vβ expression were determined as follows: Total RNA from the different CTL clones was prepared by using RNAzol*B (Cinna/Biotecx, Friendswood, Tex.). […] Specificity of TCR Vα and Vβ PCR amplification was assessed by Southern blotting and hybridization with ^32P-labelled Cα or Cβ oligonucleotides internal to the ones used for amplification.

[3] = system: P1.HTR cells transfected with HLA-Cw*1601; assay: chromium release assay: lysis by CTL clone 82/82 of P1.HTR transfected with HLA-Cw*1601 and incubated with peptide; type: cell-based, mouse; settings: P1.HTR transfected with HLA-Cw*1601, 1 μM peptide, lysis tested after 4 hours
Method: as §1, §2
where ER is observed, experimental ^51Cr release, SR is spontaneous release measured by incubating 10^3 labeled cells in 200 μl of medium alone, and MR is maximum release, obtained by adding 100 μl 0.3% Triton X-100 to target cells. […]
Several synthetic peptides were prepared on this basis. […] Chromium release was measured after 4 hours at 37° C. […]

AARAVFLAL [Ala Ala Arg Ala Val Phe Leu Ala Leu, BAGE-encoded nonapeptide (amino acids 2-10) recognized in association with HLA-Cw*1601 by CTL 82/82]
EC50 ([1]; MZ2-EBV targets incubated 30 minutes with peptide, CTL 82/82 added, read-out: peptide concentration giving half-maximal lysis): 30 nM
sensitization of target cells to lysis by CTL 82/82 [1]: Sensitization of a lymphoblastoid cell line from patient MZ2 to lysis by CTL 82/82 was observed
response of CTL clones recognizing the BAGE/HLA-Cw*1601 antigen [2]: responded
lysis by CTL 82/82 of peptide-incubated transfected cells [3]: lysed by CTL 82/82

ARAVFLALF
sensitization of target cells to lysis by CTL 82/82 [1]: not able to sensitize target cells to lysis

MAARAVFLA
sensitization of target cells to lysis by CTL 82/82 [1]: not able to sensitize target cells to lysis
